According to ChEMBL document CHEMBL1201862, “PubChem BioAssay data set” (2004):
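Five concentrations, 48 hours, 96-well plates. Here, GI50 denotes the concentration required for 50% inhibition of growth.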 Activity calls are given as the source filed them. No stated cut-off is given here; in the data, active = GI50 up to about 1.1 µM and inactive = higher.

Columns and labels:
Assay in all cases: NCI anticancer screen, dose series, 48 h
DMS-114 = tested on: DMS-114
DMS-273 = tested on: DMS-273
LXFL 529 = tested on: LXFL 529
M19-MEL = tested on: M19-MEL
RXF 631 = tested on: RXF 631
XF498 = tested on: XF498

Measured: GI50

CN(/N=C/c1cccc2cccnc12)c1c([N+](=O)[O-])cc([N+](=O)[O-])cc1[N+](=O)[O-]
inactive: DMS-114 6.52 µM | DMS-273 7.6 µM | LXFL 529 > 100 µM | M19-MEL > 100 µM | RXF 631 > 100 µM | XF498 > 100 µM

CCOP1(=O)C=C(C)C(Cl)=C(C)C1 (stereo not given)
inactive: DMS-114 17.5 µM | DMS-273 13.6 µM | LXFL 529 17.3 µM | M19-MEL 21.1 µM | RXF 631 2.75 µM | XF498 26.8 µM

O=C(/C=C/c1ccccc1O)c1cccc2ccccc12
inactive: DMS-114 21.4 µM | DMS-273 54.5 µM | LXFL 529 36.2 µM | M19-MEL > 100 µM | RXF 631 > 100 µM | XF498 25.8 µM

COc1ccc2cc1Oc1ccc(cc1)CC1c3cc(c(OC)cc3CCN1C)Oc1c3c(cc4c1C(C2)N(C)CC4)OCO3 (stereo not given)
inactive: DMS-114 5.74 µM | DMS-273 3.44 µM | LXFL 529 13 µM | M19-MEL 3.85 µM | RXF 631 13.7 µM | XF498 9.55 µM

O=C1/C(=C/c2ccc(Br)cc2)CCC/C1=C\c1ccc(Br)cc1
inactive: DMS-114 13.2 µM | DMS-273 3.57 µM | LXFL 529 3.82 µM | M19-MEL 4.3 µM | RXF 631 5.05 µM | XF498 21.8 µM
